# In patent US7812015B2, “Prophylaxis and treatment of infectious diseases” (priority 2002, dated 2010):
# Where two headings read alike, the source gives them in different places.
# Key:
# Hela epithelial cells = tested on: Hela epithelial cells
# Procedure: (§1) The cells were infected with rhinoviruses (strain 14, MOI 25), and the sphingomyelinase activity in cell lysates was measured. For this purpose, the cells were washed after the infection, taken up in 250 mM sodium acetate (pH 5.0), 1.3 mM EDTA and 0.05% NP40, disrupted by ultrasound treatment with a sonicator probe at low energy, and incubated with [^14C]sphingomyelin (0.5 μCi/sample, 54.5 mCi/mmol; NEN) for 30 min The in vitro enzyme assay was stopped by adding 800 μl of a 2:1 column mixture of CHCl3 and CH3OH (v/v) and 200 μl of H2O, and the liberation of [^14C]phosphorylcholine into the aqueous supernatant was measured by scintigraphy after organic extraction. […] Hela cells were again infected with rhinoviruses (strain 14) for this purpose. Ceramide was measured by a diacylglycerol (DAG) kinase assay (Grassme et al., Cell 91, 605-615, 1997). Ceramide was converted into [^32P]-ceramide by adding DAG kinase and [^32P]γATP. The phosphorylated ceramide was fractionated by thin layer chromatography and determined by scintigraphy. […] Infection of human epithelial cells by rhinoviruses was measured in flow cytometric analyses of the cytopathic effect of the viruses. […] 2.
# rhinovirus strain 14 = experiment: Infection of Hela epithelial cells with rhinovirus strain 14, cytotoxic effect by flow cytometry after FITC-annexin staining; type: cell-based, human; conditions: rhinovirus strain 14, 24 h, drug added in serum-free medium 30 min before infection
# Source text: (§2) This was shown for Hela cells as example. […] Means±standard deviation for three experiments are shown. […] This is depicted in FIG. 2. […] Means±standard deviation of three experiments are depicted. […] 2. Infection with HIV
# [1] = tested on: rhinovirus strains (RV14, RV16); experiment: Infection of Hela epithelial cells with various rhinovirus strains, cytotoxic effect by FITC-annexin flow cytometry; type: cell-based, human; conditions: RV14 and RV16, 24 h, drug added in serum-free medium 30 min before infection
# Source text: as §2
# ceramide = experiment: Ceramide liberation in rhinovirus-infected Hela cells (DAG kinase assay); type: cell-based, human; conditions: Hela cells infected with rhinovirus strain 14, preincubation
# Source text: as §2
# [2] = molecular target: T1, acid sphingomyelinase (ASM) (Homo sapiens, UniProt P17405); experiment: Acid sphingomyelinase activity in lysates of Hela cells infected with rhinovirus strain 14 ([14C]sphingomyelin assay); type: cell-based; conditions: rhinovirus strain 14, MOI 25, preincubation with inhibitor
# T1 construct: endogenous in cells; host or cells: HeLa cells infected with rhinovirus strain 14
# Procedure: as §1
# T1 sequence (P17405 47-631): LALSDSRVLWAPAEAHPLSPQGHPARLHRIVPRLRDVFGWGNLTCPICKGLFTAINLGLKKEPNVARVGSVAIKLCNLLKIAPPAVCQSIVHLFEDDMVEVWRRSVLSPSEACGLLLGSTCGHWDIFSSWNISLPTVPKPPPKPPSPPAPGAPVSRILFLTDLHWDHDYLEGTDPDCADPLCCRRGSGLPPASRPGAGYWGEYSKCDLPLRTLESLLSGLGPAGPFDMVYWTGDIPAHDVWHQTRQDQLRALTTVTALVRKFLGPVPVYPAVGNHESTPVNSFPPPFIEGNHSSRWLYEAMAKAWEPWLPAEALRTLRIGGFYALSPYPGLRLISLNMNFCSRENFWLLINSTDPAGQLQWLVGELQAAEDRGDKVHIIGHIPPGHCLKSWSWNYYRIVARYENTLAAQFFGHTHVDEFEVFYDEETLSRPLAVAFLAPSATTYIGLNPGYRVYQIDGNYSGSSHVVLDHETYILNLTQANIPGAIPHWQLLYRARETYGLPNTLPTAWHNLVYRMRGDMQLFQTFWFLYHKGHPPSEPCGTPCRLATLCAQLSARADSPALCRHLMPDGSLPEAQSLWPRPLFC
structure (smiles),measurement,setting,value
CN(C)CCCN1c2ccccc2CCc2ccccc21 [imipramine],cytotoxic effect of the drug itself on the cells,Hela epithelial cells,no cytotoxic effect
same,inhibition of viral infection (cytotoxic effect of the virus),rhinovirus strain 14,almost completely inhibits the viral infection
same,inhibition of viral infection (cytotoxic effect of the viruses),[1],almost completely inhibit the viral infection
CN(C)CCC=C1c2ccccc2CCc2ccccc21 [amitryptiline],cytotoxic effect of the drug itself on the cells,Hela epithelial cells; Hela cells,no cytotoxic effect
same,liberation of ceramide after preincubation of the cells,ceramide,abolishes the liberation of ceramide
same,inhibition of viral infection (cytotoxic effect of the virus),rhinovirus strain 14,almost completely inhibits the viral infection
same,activity of acid sphingomyelinase after preincubation of the cells,[2],blocks the activity of acid sphingomyelinase
same,inhibition of viral infection (cytotoxic effect of the viruses),[1],almost completely inhibit the viral infection
